According to ChEMBL document CHEMBL1667745, “Synthesis and antibacterial evaluation of novel clarithromycin derivatives with C-4″ elongated arylalkyl groups against macrolide-resistant strains” (2011):
Values after ≈ are worked out from the molar mass of the structure shown.

Assays:
Type in all cases: functional
Streptococcus pneumoniae [1] = experiment: Antimicrobial activity against erythromycin-susceptible Streptococcus pneumoniae ATCC 49619 by broth microdilution method
Streptococcus pneumoniae [2] = experiment: Antimicrobial activity against erythromycin-resistant Streptococcus pneumoniae B1 expressing the erm gene by broth microdilution method
Streptococcus pneumoniae [3] = experiment: Antimicrobial activity against erythromycin-resistant Streptococcus pneumoniae A22072 expressing the mef gene by broth microdilution method
Streptococcus pneumoniae [4] = experiment: Antimicrobial activity against erythromycin-resistant Streptococcus pneumoniae AB11 expressing the erm and mef gene by broth microdilution method
Staphylococcus aureus [5] = experiment: Antimicrobial activity against erythromycin-susceptible Staphylococcus aureus ATCC 25923 by broth microdilution method
Staphylococcus aureus [6] = experiment: Antimicrobial activity against penicillin-susceptible Staphylococcus aureus P1 by broth microdilution method
Streptococcus pyogenes [7] = experiment: Antimicrobial activity against erythromycin-susceptible Streptococcus pyogenes S2 by broth microdilution method
Streptococcus pyogenes [8] = experiment: Antimicrobial activity against erythromycin-resistant Streptococcus pyogenes R2 by broth microdilution method

SMILES	MIC (Streptococcus pneumoniae [1])	MIC (Streptococcus pneumoniae [2])	MIC (Streptococcus pneumoniae [3])	MIC (Streptococcus pneumoniae [4])	MIC (Staphylococcus aureus [5])	MIC (Staphylococcus aureus [6])	MIC (Streptococcus pyogenes [7])	MIC (Streptococcus pyogenes [8])
CCCNC(=O)CCCNC(=O)O[C@H]1[C@H](C)O[C@@H](O[C@H]2[C@H](C)[C@@H](O[C@@H]3O[C@H](C)C[C@H](N(C)C)[C@H]3O)[C@](C)(OC)C[C@@H](C)C(=O)[C@H](C)[C@@H](O)[C@](C)(O)[C@@H](CC)OC(=O)[C@@H]2C)C[C@@]1(C)OC	0.03 µg/mL (≈ 0.0327 µM)	128 µg/mL (≈ 139 µM)	4 µg/mL (≈ 4.36 µM)	128 µg/mL (≈ 139 µM)	0.25 µg/mL (≈ 0.272 µM)	32 µg/mL (≈ 34.9 µM)	1 µg/mL (≈ 1.09 µM)	32 µg/mL (≈ 34.9 µM)
CC[C@H]1OC(=O)[C@H](C)[C@@H](O[C@H]2C[C@@](C)(OC)[C@@H](OC(=O)NCc3ccc(F)cc3)[C@H](C)O2)[C@H](C)[C@@H](O[C@@H]2O[C@H](C)C[C@H](N(C)C)[C@H]2O)[C@](C)(OC)C[C@@H](C)C(=O)[C@H](C)[C@@H](O)[C@]1(C)O	0.06 µg/mL (≈ 0.0667 µM)	4 µg/mL (≈ 4.45 µM)	0.5 µg/mL (≈ 0.556 µM)	8 µg/mL (≈ 8.9 µM)	0.12 µg/mL (≈ 0.133 µM)	2 µg/mL (≈ 2.22 µM)	0.03 µg/mL (≈ 0.0334 µM)	0.5 µg/mL (≈ 0.556 µM)
CCCNC(=O)O[C@H]1[C@H](C)O[C@@H](O[C@H]2[C@H](C)[C@@H](O[C@@H]3O[C@H](C)C[C@H](N(C)C)[C@H]3O)[C@](C)(OC)C[C@@H](C)C(=O)[C@H](C)[C@@H](O)[C@](C)(O)[C@@H](CC)OC(=O)[C@@H]2C)C[C@@]1(C)OC	0.25 µg/mL (≈ 0.3 µM)	64 µg/mL (≈ 76.8 µM)	2 µg/mL (≈ 2.4 µM)	32 µg/mL (≈ 38.4 µM)	0.25 µg/mL (≈ 0.3 µM)	16 µg/mL (≈ 19.2 µM)	0.5 µg/mL (≈ 0.6 µM)	1 µg/mL (≈ 1.2 µM)
CC[C@H]1OC(=O)[C@H](C)[C@@H](O[C@H]2C[C@@](C)(OC)[C@@H](OC(=O)NCc3ccccc3)[C@H](C)O2)[C@H](C)[C@@H](O[C@@H]2O[C@H](C)C[C@H](N(C)C)[C@H]2O)[C@](C)(OC)C[C@@H](C)C(=O)[C@H](C)[C@@H](O)[C@]1(C)O	0.25 µg/mL (≈ 0.284 µM)	4 µg/mL (≈ 4.54 µM)	0.25 µg/mL (≈ 0.284 µM)	8 µg/mL (≈ 9.08 µM)	0.25 µg/mL (≈ 0.284 µM)	1 µg/mL (≈ 1.13 µM)	0.12 µg/mL (≈ 0.136 µM)	16 µg/mL (≈ 18.2 µM)
CC[C@H]1OC(=O)[C@H](C)[C@@H](O[C@H]2C[C@@](C)(OC)[C@@H](OC(=O)NCCCCCC(=O)NCc3ccc(F)cc3)[C@H](C)O2)[C@H](C)[C@@H](O[C@@H]2O[C@H](C)C[C@H](N(C)C)[C@H]2O)[C@](C)(OC)C[C@@H](C)C(=O)[C@H](C)[C@@H](O)[C@]1(C)O	0.03 µg/mL (≈ 0.0296 µM)	2 µg/mL (≈ 1.98 µM)	0.5 µg/mL (≈ 0.494 µM)	4 µg/mL (≈ 3.95 µM)	0.25 µg/mL (≈ 0.247 µM)	32 µg/mL (≈ 31.6 µM)	0.03 µg/mL (≈ 0.0296 µM)	0.25 µg/mL (≈ 0.247 µM)
CC[C@H]1OC(=O)[C@H](C)[C@@H](O[C@H]2C[C@@](C)(OC)[C@@H](O)[C@H](C)O2)[C@H](C)[C@@H](O[C@@H]2O[C@H](C)C[C@H](N(C)C)[C@H]2O)[C@](C)(O)C[C@@H](C)CN(C)[C@H](C)[C@@H](O)[C@]1(C)O [AZITHROMYCIN]	0.03 µg/mL (≈ 0.0401 µM)	128 µg/mL (≈ 171 µM)	4 µg/mL (≈ 5.34 µM)	256 µg/mL (≈ 342 µM)	0.25 µg/mL (≈ 0.334 µM)	0.12 µg/mL (≈ 0.16 µM)	0.03 µg/mL (≈ 0.0401 µM)	8 µg/mL (≈ 10.7 µM)
C=CCNC(=O)O[C@H]1[C@H](C)O[C@@H](O[C@H]2[C@H](C)[C@@H](O[C@@H]3O[C@H](C)C[C@H](N(C)C)[C@H]3O)[C@](C)(OC)C[C@@H](C)C(=O)[C@H](C)[C@@H](O)[C@](C)(O)[C@@H](CC)OC(=O)[C@@H]2C)C[C@@]1(C)OC	0.25 µg/mL (≈ 0.301 µM)	–	–	–	0.25 µg/mL (≈ 0.301 µM)	32 µg/mL (≈ 38.5 µM)	0.03 µg/mL (≈ 0.0361 µM)	–
C=CCNC(=O)CCCNC(=O)O[C@H]1[C@H](C)O[C@@H](O[C@H]2[C@H](C)[C@@H](O[C@@H]3O[C@H](C)C[C@H](N(C)C)[C@H]3O)[C@](C)(OC)C[C@@H](C)C(=O)[C@H](C)[C@@H](O)[C@](C)(O)[C@@H](CC)OC(=O)[C@@H]2C)C[C@@]1(C)OC	0.03 µg/mL (≈ 0.0327 µM)	–	–	–	0.25 µg/mL (≈ 0.273 µM)	8 µg/mL (≈ 8.73 µM)	0.03 µg/mL (≈ 0.0327 µM)	–
C=CCNC(=O)CCCCCNC(=O)O[C@H]1[C@H](C)O[C@@H](O[C@H]2[C@H](C)[C@@H](O[C@@H]3O[C@H](C)C[C@H](N(C)C)[C@H]3O)[C@](C)(OC)C[C@@H](C)C(=O)[C@H](C)[C@@H](O)[C@](C)(O)[C@@H](CC)OC(=O)[C@@H]2C)C[C@@]1(C)OC	0.03 µg/mL (≈ 0.0318 µM)	–	–	–	0.25 µg/mL (≈ 0.265 µM)	16 µg/mL (≈ 16.9 µM)	0.5 µg/mL (≈ 0.53 µM)	–
